The numbers were not newly measured in patent US20060165781A1, “Orally disintegrating tablets and process for obtaining them” (priority 2002, published 2006), which cites them from elsewhere.

The conditions of the series: 5 g in 150 mL of water at 20° C.

For `OC[C@@H](O)[C@@H](O)[C@H](O)[C@H](O)CO` [Spray-dried mannitol, mannitol], the “Time to dissolve in water” value is “approximately 5 s”.
